Laboratory results as given in patent EP0126483A2, “Deodorant” (Eduard Gerlach GmbH Chemische Fabrik, priority 1983, dated 1984).

Each compound was assayed on Achsel- und Fußschweiß. Settings: 3 %ige Lösung in Alkohol/Wassergemisch.
Source text: Die Wirksamkeit der in der Beschreibung genannte Verbindungen wurde folgendermaßen ermittelt: • 1) Die Versuchspersonen, 10 männliche und 10 weibliche Probanden, benutzten zur Körperreinigung ein von bakteriziden und fungiziden Stoffen freies Duschbad. Die linke Achselhöhle und der linke Fuß, insbesondere die Partien zwischen den Zehen, wurden mit einem Präparat gemäß den Beispielen behandelt. Die rechte Achselhöhle und der rechte Fuß wurden nicht behandelt. Die Prüfung erfolgte nach 12 und 24 Stunden durch die Versuchsansteller, indem jeweils ein geruchsfreies Mullkissen aus 4 Lagen Verbandmull mit den behandelten und unbehandelten Stellen in intensive Berührung durch Reiben gebracht wurde. Anschließend prüften die Tester den Geruch der Kissen selbst. […] Sie wurden verpflichtet, kein anderes desodorierendes Präparat, sei es ein kosmetisches Spezialpräparat oder eine sogenannte "Deo-Seife" zu benutzen.

Compound | Desodorierung des Achsel- und Fußschweißes
CC(C)(CO)C(O)C(=O)NCCCO (centres unmarked) [Panthenol, N-Propanolamid der 1,3-Dihydroxy-2,2-Dimethylbuttersäure, reference compound] | befriedigende Desodorierung

Same assay, conditions: 3 bis 5 % in a deodorant preparation; time after application

Compound | anhaltender Schutz vor der Bildung unangenehmer Zersetzungsprodukte des Achsel- und Fußschweißes [Stunden]
CC(=O)NCCO [Essigsäuremonoethanolamid] | ≤ 24

Same assay, conditions: 5 % in Alkohol/Wassergemisch; also in strongly perspiring persons

Compound | Desodorierung des Achsel- und Fußschweißes
CC(C)(CO)C(O)C(=O)NCCCO (centres unmarked) [Panthenol, N-Propanolamid der 1,3-Dihydroxy-2,2-Dimethylbuttersäure, reference compound] | optimal

Same assay, conditions: in vivo

Compound | Hautfreundlichkeit
CC(C)(CO)C(O)C(=O)NCCCO (centres unmarked) [Panthenol, N-Propanolamid der 1,3-Dihydroxy-2,2-Dimethylbuttersäure, reference compound] | hervorragender

Same assay, conditions: result in words; concentration not given

Compound | desodorierende Wirksamkeit
CC(=O)NCCO [Essigsäuremonoethanolamid] | besonders kräftiger Wirkstoff
Ethanolamide der Malonsäure | Erfolgreich getestet
NC(N)=O [Harnstoff, reference compound] | mit bestem Erfolg
Ethanolamide der Bernsteinsäure | Erfolgreich getestet
CCOC(N)=O [Urethan] | Wirksam
Ethanolamide der Glutarsäure | Erfolgreich getestet
O=C1CC(=O)NC(=O)N1 [Malonylharnstoff(Barbitursäure), Malonylharnstoff] | Wirksam
Ethanolamide der Weinsäure | Erfolgreich getestet
CC(=O)NCC(=O)O [N-Acetylglycin (Acetursäure), N-Acetylglycin] | gute Wirkstoffe
Ethanolamide der Adipinsäure | Erfolgreich getestet
NC(=O)NCCO [ß-Hydroxiethylharnstoff] | Sehr wirksam
CC(O)C(=O)NCCO (centres unmarked) [Ethanolamide der Milchsäure] | Die gleiche Eigenschaft
O=C(O)CNC(=O)c1ccccc1 [Hippursäure] | Wirksam
NC(=O)NC(N)=O [Biuret] | Wirksam
Ethanolamide der Zitronensäure | Erfolgreich getestet
CCC(=O)NCCO [Ethanolamide der Propionsäure] | Die gleiche Eigenschaft
